This is an account of results in paper PMC11597085 (Molecules, 2024).

For orientation: inhibition means how much of the control response was suppressed. Usually IC50 stands for the concentration needed to halve the response being measured.

Data set [1] has as its system phosphorylated tau (P-tau). Kind of data set: P-tau level ELISA in SH-SY5Y cells. To be noted: Homo sapiens, 24 h, read-out: P-tau inhibition.
Procedure: SH-SY5Y cells were grown in a complete growth medium comprising Dulbecco’s Modified Eagle Medium (DMEM) supplemented with 10% fetal bovine serum (FBS) and 1% penicillin/streptomycin. For treatment, adherent SH-SY5Y cells were plated in 96-well plates at a density of 2 × 10^6 cells per well. Levosimendan (Sigma, St. Louis, MO, USA) was used as an inhibitor to verify the effect on tau inhibition. Upon treatment with 20 μM of each substance, the cells were cultured for 24 h. The supernatant was then collected and used in subsequent ELISA assays.
The tau levels were assessed using a Human Tau ELISA kit (Abcam, Cambridge, UK). After treatment, the supernatant was diluted five times. The diluted supernatant, capture antibody, and detection antibody were mixed in a 2:1:1 ratio and incubated for 1 h. The wells were then washed three times with a wash buffer. After removing the buffer, 100 µL of 3,3′,5,5′-tetramethylbenzidine developer was added and incubated for 10 min, followed by the addition of 100 µL stop solution. The optical density was measured at 450 nm. Data analysis was performed by calculating the mean and standard deviation using GraphPad Prism 8 (GraphPad, San Diego, CA, USA).
A short description of data set [2]: Chemical stability in water (10 mM) at 60 °C by HPLC. The class given is physicochemical. As to conditions: for Chemical stability, Initial (%): HPLC AUC, 0 h set to 100%; for Chemical stability, 24 h / Chemical stability, 48 h / Chemical stability, 76 h / Chemical stability, 164 h / Chemical stability, 330 h: storage at 60 °C, HPLC.
Procedure: For this purpose, high-performance liquid chromatography (HPLC) was employed to measure any changes in these species upon storage at 60 °C (Table 1).
Data set [3] concerns the target T1, BACE-1 (Homo sapiens, UniProt P56817).
T1 construct: purchased PanVera Corp. / Thermo Fisher Scientific P2985
Kind of data set: BACE-1 FRET inhibition assay. The class given is biochemical.
Procedure: A BACE-1 inhibition assay was performed using a β-Secretase FRET kit (BACE-1, Thermo Fisher Scientific, San Diego, CA, USA) following the manufacturer’s instructions. […] In black 96-well microplates, 10 µL of the BACE-1 substrate was added to the diluted samples. The reaction was initiated by adding 10 µL of 3× BACE-1 enzyme to each well. The plates were incubated for 60 min at RT in the dark. After incubation, the reaction was stopped by adding 10 µL of 2.5 mM sodium acetate to each well. […] The IC50 value was determined by plotting the relative fluorescence units per hour (RFU/h) against the logarithmic inhibitor concentrations. All experiments were conducted in triplicate.

A short description of data set [4]: DPPH radical scavenging assay. As to conditions: methanol, 30 min, RT, dark. It counts as biochemical. (Loss of DPPH colour is used to gauge radical scavenging.)
Procedure: The mixture was then kept in the dark at RT for 30 min. Afterward, the absorbance was measured at 540 nm.
Data set [5] deals with T2, acetylcholinesterase (AChE) (Electrophorus electricus, UniProt O42275).
T2 construct: purchased Sigma-Aldrich C3389
T2 sequence (O42275 24-633): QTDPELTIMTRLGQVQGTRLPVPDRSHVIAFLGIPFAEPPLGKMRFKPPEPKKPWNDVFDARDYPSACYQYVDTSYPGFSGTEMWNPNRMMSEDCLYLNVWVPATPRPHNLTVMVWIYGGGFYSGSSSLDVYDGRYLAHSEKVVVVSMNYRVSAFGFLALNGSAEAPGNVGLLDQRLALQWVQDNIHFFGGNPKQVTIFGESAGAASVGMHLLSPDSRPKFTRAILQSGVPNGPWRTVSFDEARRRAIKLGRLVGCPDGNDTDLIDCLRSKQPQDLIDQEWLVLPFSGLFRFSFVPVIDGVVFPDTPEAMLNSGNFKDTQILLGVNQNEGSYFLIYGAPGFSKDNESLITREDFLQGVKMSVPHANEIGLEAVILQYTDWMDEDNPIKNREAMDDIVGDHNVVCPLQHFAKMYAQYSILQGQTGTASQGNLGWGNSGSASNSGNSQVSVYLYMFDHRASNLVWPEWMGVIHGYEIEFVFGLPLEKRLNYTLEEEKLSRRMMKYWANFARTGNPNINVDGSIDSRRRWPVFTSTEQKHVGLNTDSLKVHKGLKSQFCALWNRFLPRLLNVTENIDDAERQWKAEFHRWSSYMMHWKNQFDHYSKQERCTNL
Kind of data set: biochemical.

For data set [6], the system named is NLRP3. Kind of data set: NLRP3 ELISA in LPS-induced RAW264.7 cells. It counts as cell-based, murine. As to conditions: 25 µM (method: 20 µM), LPS 0.5 µg/mL, 24 h. From the text: The induced cytokines further contribute to AD pathology by hyperphosphorylation of the tau protein [19]. Additionally, the activation of NLRP3 has been implicated in the pathogenesis of AD [20, 21], and this inflammatory response fosters the generation of Aβ and tau, ultimately contributing to disease progression. Thus, to determine the anti-inflammatory activities of the prepared derivatives, we measured the inhibition of nitrogen oxide (NO) and NLRP3 in LPS-induced RAW264.7 cells. The active concentration for activity assessment was established as 25 µM, at which cell viability had been previously confirmed.
RAW 264.7 macrophages were seeded at a density of 5 × 10^5 cells/well in 96-well plates and treated with 20 µM of RA-Hyd-Me, RA-Hyd-Me-tol, RA-Benzo, and RA-Sali for 1 h and then stimulated with 0.5 μg/mL LPS for 24 h. Culture supernatant levels of NOD-like receptor pyrine domain containing-3 (NLRP3) were determined using a commercially available ELISA kit (Lsbio, Seattle, WA, USA) and following the instructions of the manufacturer. The absorbance of the plate was read at a wavelength of 450 nm. NLRP3 was determined from a standard curve. The concentrations were expressed as ng/mL. To obtain statistical significance, all experiments were carried out in duplicate.

Data set [7] is described as follows: Stability of Ramalin in water vs deoxygenated water (10 mM, 48 h, 25 °C). The class given is physicochemical. From the text:
This is evidenced by the increased stability when dissolved in deoxygenated water compared to water containing dissolved oxygen. […] We attempted modifications by introducing a methyl group into phenyl hydrazine to prevent conversion into the azo form or by linking the phenyl group to a benzophenone structure to block electron flow and mitigate oxidation, thereby enhancing stability.

The mark [8] stands for this setting: FRET kit, 60 min, RT, triplicate, read-out: BACE-1 IC50.

Read-outs that look alike come from different tables or passages of the source.

T1 sequence (P56817 46-501): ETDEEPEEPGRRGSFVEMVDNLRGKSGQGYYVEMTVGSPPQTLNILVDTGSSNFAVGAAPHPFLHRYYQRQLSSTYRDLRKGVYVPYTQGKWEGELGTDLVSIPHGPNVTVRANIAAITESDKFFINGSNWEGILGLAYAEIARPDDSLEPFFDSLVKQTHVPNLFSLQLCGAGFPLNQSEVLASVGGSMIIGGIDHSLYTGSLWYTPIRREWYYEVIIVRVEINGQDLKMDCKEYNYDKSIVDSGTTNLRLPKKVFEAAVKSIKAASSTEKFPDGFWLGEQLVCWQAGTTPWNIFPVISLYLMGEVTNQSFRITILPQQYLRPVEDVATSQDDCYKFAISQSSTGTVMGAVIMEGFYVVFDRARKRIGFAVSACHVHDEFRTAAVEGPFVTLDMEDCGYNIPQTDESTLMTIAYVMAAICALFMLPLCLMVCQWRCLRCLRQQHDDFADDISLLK

`Cl.N[C@@H](CCC(=O)NNC(=O)c1ccccc1)C(=O)O` [RA-Benzo, N^5-benzamido-L-glutamine hydrochloride]: in data set [1], the inhibition at 20 µM is 10 to 15%. Moreover, in data set [2], the “Chemical stability, Initial (%)” value turned out to be 100%; the “Chemical stability, 24 h” value stood at 97.2%; the “Chemical stability, 48 h” value is recorded as 94.4%; the “Chemical stability, 76 h” value is recorded as 91.5%. In data set [2], the “Chemical stability, 164 h” value turned out to be 82.5% and the “Chemical stability, 330 h” value is on record as 68.0%. Besides, in data set [3] (setting [8]), the IC50 was found to be 144 ± 87.1 µM.

As for `CN(NC(=O)CC[C@H](N)C(=O)O)c1ccccc1` [RA-Hyd-Me, N^5-(methyl(phenyl)amino)-L-glutamine], in data set [1], the inhibition at 20 µM fell in the range of 10 to 15%. Besides, half-maximal inhibition in data set [4] (IC50) was put at 14.4 µM. In data set [2], the “Chemical stability, Initial (%)” value worked out at 100%; the “Chemical stability, 24 h” value worked out at 97.5%; the “Chemical stability, 48 h” value worked out at 94.5%; the “Chemical stability, 76 h” value was 91.1%. Further, in data set [2], the “Chemical stability, 164 h” value worked out at 80.3% and the “Chemical stability, 330 h” value stood at 65.4%. The molecule also showed a half-maximal inhibitory concentration (IC50) in data set [3] of 15.5 ± 5.8 µM.

For the molecule `Cc1cccc(N(C)NC(=O)CC[C@H](N)C(=O)O)c1` [RA-Hyd-Me-Tol, N^5-(methyl(m-tolyl)amino)-L-glutamine], the inhibition at 20 µM in data set [1] lay in the range of 10 to 15%. Also, the IC50 in data set [4] is 12.4 µM. For the same molecule, in data set [2], the “Chemical stability, Initial (%)” value came out at 100%; the “Chemical stability, 24 h” value was 97.5%; the “Chemical stability, 48 h” value worked out at 94.6%; the “Chemical stability, 76 h” value was 91.0%. In data set [2], the “Chemical stability, 164 h” value came out at 80.0% and the “Chemical stability, 330 h” value was found to be 63.4%. Further, in data set [3] (setting [8]), the IC50 is 22.5 ± 1.76 µM.

Regarding `Cl.N[C@@H](CCC(=O)NNC(=O)c1ccccc1O)C(=O)O` [RA-Sali, N^5-(2-hydroxybenzamido)-L-glutamine hydrochloride], in data set [1], the inhibition at 20 µM was about 40%. Further, in data set [2], the “Chemical stability, Initial (%)” value amounted to 100%; the “Chemical stability, 24 h” value is 99.6%; the “Chemical stability, 48 h” value turned out to be 96.7%; the “Chemical stability, 76 h” value is 93.3%. Besides, in data set [2], the “Chemical stability, 164 h” value is 82.6% and the “Chemical stability, 330 h” value is 69.1%. In data set [5], this molecule displayed an inhibition at 50 µM of 7.8%. The NLRP3 inhibitory activity in data set [6] was ~ 25%. Further, the IC50 in data set [3] (setting [8]) was 8.44 ± 5.16 µM.

For `N[C@@H](CCC(=O)NNc1ccccc1O)C(=O)O` [Ramalin, reference compound], in data set [7] (deoxygenated water), the “Ramalin remained in deoxygenated water” value was determined as 92%. The “Ramalin remained in regular water” value in data set [7] (regular water) is “about 53%”. Also, in data set [2], the “Chemical stability, Initial (%)” value came out at 100% ^1; the “Chemical stability, 24 h” value was found to be 35.1% ^2; the “Chemical stability, 48 h” value turned out to be 17.1%; the “Chemical stability, 76 h” value is 7.6%.
